Assay results published in ChEMBL document CHEMBL1817597, “Antifungal thiopeptide cyclothiazomycin B1 exhibits growth inhibition accompanying morphological changes via binding to fungal cell wall chitin” (Bioorg Med Chem, 2011).
In brackets after ≈: the same amount, converted by molar mass. Activity calls are given as the source filed them. The rule behind the calls is not given here.

Columns and labels:
LLC-PK1 = test: Cytotoxicity against pig LLC-PK1 cells up to 65.5 uM after 24 hrs by Alamar blue assay; assay type: cell-based, Sus scrofa; settings: llc-pk1, 24 h
Mucor mucedo [1] = test: Antifungal activity against Mucor mucedo IFO 7684 under hypoosmotic shock assessed as increase of fragility of organism at 0.026 uM after 24 hrs measured after distilled water treatment for 10 mins by microscopic analysis; assay type: functional, organism-based
Aspergillus fumigatus = test: Antimicrobial activity against Aspergillus fumigatus IFO 5840 at <6.55 uM after 24 hrs by broth microdilution method; assay type: functional, organism-based
Penicillium chrysogenum [2] = test: Antimicrobial activity against Penicillium chrysogenum IFO 4626 at <6.55 uM after 24 hrs by broth microdilution method; assay type: functional, organism-based
Mucor mucedo [3] = test: Inhibition of RNA synthesis in Mucor mucedo IFO 7684 assessed as [8-14C]-adenine uptake into acid-insoluble fractions at 0.13 uM after 25 mins by liquid scintillation counting; assay type: functional, organism-based
Mucor mucedo [4] = test: Antimicrobial activity against Mucor mucedo IFO 7684 after 24 hrs by broth microdilution method; assay type: functional; settings: IFO 7684, 24 h
Fusarium oxysporum [5] = test: Antimicrobial activity against Fusarium oxysporum NBRC 5942 at <6.55 uM after 24 hrs by broth microdilution method; assay type: functional, organism-based
Fusarium avenaceum = test: Antimicrobial activity against Fusarium avenaceum NBRC 33237 at <6.55 uM after 24 hrs by broth microdilution method; assay type: functional, organism-based
Mucor mucedo [6] = test: Antimicrobial activity against Mucor mucedo IFO 7684 after 24 hrs by broth microdilution method in presence of 100 uM of PKA inhibitor H8; assay type: functional; settings: IFO 7684, 24 h
Fusarium solani [7] = test: Antimicrobial activity against Fusarium solani NBRC 5899 after 24 hrs by broth microdilution method; assay type: functional; settings: NBRC 5899, 24 h
Rhodotorula mucilaginosa = test: Antimicrobial activity against Rhodotorula mucilaginosa IFO 0001 after 24 hrs by broth microdilution method; assay type: functional, organism-based
Mucor mucedo [8] = test: Antimicrobial activity against Mucor mucedo IFO 7684 after 24 hrs by broth microdilution method in presence of 100 uM of PKA activator dbcAMP; assay type: functional; settings: IFO 7684, 24 h
Rhizopus arrhizus [9] = test: Antimicrobial activity against Rhizopus oryzae IFO 4766 at <6.55 uM after 24 hrs by broth microdilution method; assay type: functional, organism-based
Aspergillus niger [10] = test: Antimicrobial activity against Aspergillus niger ATCC 6275 at <6.55 uM after 24 hrs by broth microdilution method; assay type: functional, organism-based
Fusarium fujikuroi = test: Antimicrobial activity against Gibberella fujikuroi NBRC 6349 after 24 hrs by broth microdilution method; assay type: functional; settings: NBRC 6349, 24 h
Mucor mucedo [11] = test: Inhibition of total protein synthesis in Mucor mucedo IFO 7684 assessed as [U-14C]-leucine uptake into acid-insoluble fractions at 0.13 uM after 25 mins by liquid scintillation counting relative to control; assay type: functional; settings: IFO 7684, 25 min
Mucor mucedo [12] = test: Inhibition of chitin synthase in Mucor mucedo IFO 7684 assessed as incorporation of GlcNAc from [14C]-UDP-GlcNAc into acid-insoluble fractions at 4 ug/ml after 55 mins by liquid scintillation counting
Proteus vulgaris = test: Antimicrobial activity against Proteus vulgaris IFO 3851 after 24 hrs by broth microdilution method; assay type: functional, organism-based
Bacillus subtilis = test: Antimicrobial activity against Bacillus subtilis IFO 3007 after 24 hrs by broth microdilution method; assay type: functional, organism-based
Mucor mucedo [13] = test: Binding affinity to cell wall polysaccharides in Mucor mucedo IFO 7684 at 6.55 uM after 30 mins by HPLC analysis
Mucor mucedo [14] = test: Induction of morphological changes in Mucor mucedo IFO 7684 assessed as swelling of hyphae at tips at MIC after 24 hrs by microscopic analysis; assay type: functional, organism-based
Saccharomyces cerevisiae [15] = test: Antimicrobial activity against Saccharomyces cerevisiae ATCC 7754 after 24 hrs by broth microdilution method; assay type: functional, organism-based
Neurospora sitophila = test: Antimicrobial activity against Neurospora sitophila DSM 1130 at <6.55 uM after 24 hrs by broth microdilution method; assay type: functional
Rhizopus arrhizus [16] = test: Antimicrobial activity against Rhizopus oryzae IFO 4766 after 24 hrs by broth microdilution method; assay type: functional; settings: IFO 4766, 24 h
Micrococcus luteus = test: Antimicrobial activity against Micrococcus luteus IFO 3333 after 24 hrs by broth microdilution method; assay type: functional, organism-based
Fusarium oxysporum [17] = test: Antimicrobial activity against Fusarium oxysporum IFO 7152 after 24 hrs by broth microdilution method; assay type: functional; settings: IFO 7152, 24 h
Fusarium oxysporum [18] = test: Induction of morphological changes in Fusarium oxysporum NBRC 5942 assessed as thickening of hyphae at MIC after 24 hrs by microscopic analysis; assay type: functional, organism-based
Mucor mucedo [19] = test: Induction of morphological changes in Mucor mucedo IFO 7684 assessed as thickening of hyphae at 0.026 uM after 24 hrs by microscopic analysis in presence of 100 uM of PKA inhibitor H8; assay type: functional, organism-based
[20] = Binding affinity to chitosan at 6.55 uM after 30 mins by HPLC analysis
Mucor mucedo [21] = test: Inhibition of chitin synthase in germinated Mucor mucedo IFO 7684 assessed as incorporation of GlcNAc from [14C]-UDP-GlcNAc into acid-insoluble fractions at 2.61 uM after 60 mins by liquid scintillation counting relative to control
[22] = test system: Fusarium sporotrichioides; test: Antimicrobial activity against Fusarium sporotrichioides NBRC 33236 at <6.55 uM after 24 hrs by broth microdilution method; assay type: functional
Mucor mucedo [23] = test: Effect on cell wall re-generation in Mucor mucedo IFO 7684 spheroplasts under hyperosmotic condition at 0.026 uM after 18 hrs by microscopic analysis; assay type: functional
[24] = test system: Fusarium sporotrichioides; test: Antimicrobial activity against Fusarium sporotrichioides NBRC 33236 after 24 hrs by broth microdilution method; assay type: functional; settings: NBRC 33236, 24 h
Penicillium chrysogenum [25] = test: Antimicrobial activity against Penicillium chrysogenum IFO 4626 after 24 hrs by broth microdilution method; assay type: functional; settings: IFO 4626, 24 h
Fusarium oxysporum [26] = test: Antifungal activity against Fusarium oxysporum NBRC 5942 under hypoosmotic shock assessed as increase of fragility of organism at 0.026 uM after 24 hrs measured after distilled water treatment for 10 mins by microscopic analysis; assay type: functional, organism-based
Mucor mucedo [27] = test: Effect on cell wall re-generation in Mucor mucedo IFO 7684 spheroplasts at 0.026 uM after 12 hrs by microscopic analysis; assay type: functional
Staphylococcus aureus = test: Antimicrobial activity against Staphylococcus aureus IFO 12732 after 24 hrs by broth microdilution method; assay type: functional, organism-based
Saccharomyces cerevisiae [28] = test: Antimicrobial activity against Saccharomyces cerevisiae IFO 0203 after 24 hrs by broth microdilution method; assay type: functional, organism-based
Aspergillus niger [29] = test: Antimicrobial activity against Aspergillus niger ATCC 6275 after 24 hrs by broth microdilution method; assay type: functional; settings: ATCC 6275, 24 h
Fusarium oxysporum [30] = test: Antimicrobial activity against Fusarium oxysporum NBRC 30700 after 24 hrs by broth microdilution method; assay type: functional; settings: NBRC 30700, 24 h
Mucor mucedo [31] = test: Antifungal activity against Mucor mucedo IFO 7684 under hyperosmotic shock at 0.026 uM after 2 days by paper disc method; assay type: functional, organism-based
Fusarium solani [32] = test: Antimicrobial activity against Fusarium solani NBRC 8505 after 24 hrs by broth microdilution method; assay type: functional; settings: NBRC 8505, 24 h
Candida albicans = test: Antimicrobial activity against Candida albicans IFO 1061 after 24 hrs by broth microdilution method; assay type: functional, organism-based
THP-1 = test: Cytotoxicity against human THP1 cells up to 65.5 uM after 24 hrs by Alamar blue assay; assay type: cell-based; settings: thp-1, 24 h

## C=C1NC(=O)[C@H]2CSC(=N2)c2csc(n2)-c2ccc3c(n2)[C@H](C)NC(=O)[C@@H]2CCCN2C(=O)/C(=C/C)NC(=O)CNC(=O)[C@H](CCCNC(=N)N)NC(=O)C(C)(NC(=O)/C(=C/C)NC(=O)C2CSC(=N2)[C@H](CC(N)=O)NC3=O)SC[C@@H](C(=O)O)NC(=O)[C@H]2CSC(=N2)c2csc(n2)-c2csc1n2 [CYCLOTHIAZOMYCIN B1]
LLC-PK1
  Activity: Non-toxic
Mucor mucedo [1]
  Activity: Active
Aspergillus fumigatus
  Activity: inactive
Penicillium chrysogenum [2]
  Activity: inactive
Mucor mucedo [3]
  inhibition: inactive
Mucor mucedo [4]
  MIC: 0.039 µg/mL (≈ 0.0255 µM)
Fusarium oxysporum [5]
  Activity: inactive
Fusarium avenaceum
  Activity: inactive
Mucor mucedo [6]
  MIC: 0.013 µM
Fusarium solani [7]
  MIC: 0.25 µg/mL (≈ 0.164 µM)
Rhodotorula mucilaginosa
  Activity: inactive
Mucor mucedo [8]
  MIC: 0.013 µM
Rhizopus arrhizus [9]
  Activity: inactive
Aspergillus niger [10]
  Activity: inactive
Fusarium fujikuroi
  MIC: 0.25 µg/mL (≈ 0.164 µM)
Mucor mucedo [11]
  inhibition at 0.13 µM: 37%
Mucor mucedo [12]
  inhibition: inactive
Proteus vulgaris
  Activity: inactive
Bacillus subtilis
  Activity: inactive
Mucor mucedo [13]
  Activity: inactive
Mucor mucedo [14]
  Activity: Active
Saccharomyces cerevisiae [15]
  Activity: inactive
Neurospora sitophila
  Activity: inactive
Rhizopus arrhizus [16]
  MIC: > 1000 µg/mL
Micrococcus luteus
  Activity: inactive
Fusarium oxysporum [17]
  MIC: 0.25 µg/mL (≈ 0.164 µM)
Fusarium oxysporum [18]
  Activity: Active
Mucor mucedo [19]
  Activity: Active
[20]
  Activity: inactive
Mucor mucedo [21]
  inhibition: 64%
[22]
  Activity: inactive
Mucor mucedo [23]
  Activity: inactive
[24]
  MIC: 0.031 µg/mL (≈ 0.0203 µM)
Penicillium chrysogenum [25]
  MIC: 0.63 µg/mL (≈ 0.412 µM)
Fusarium oxysporum [26]
  Activity: Active
Mucor mucedo [27]
  Activity: Active
Staphylococcus aureus
  Activity: inactive
Saccharomyces cerevisiae [28]
  Activity: inactive
Aspergillus niger [29]
  MIC: > 1000 µg/mL
Fusarium oxysporum [30]
  MIC: 0.25 µg/mL (≈ 0.164 µM)
Mucor mucedo [31]
  Activity: inactive
Fusarium solani [32]
  MIC: 0.25 µg/mL (≈ 0.164 µM)
Candida albicans
  Activity: inactive
THP-1
  Activity: Non-toxic
